Laboratory results from patent publication US20240166649A1, “DIHYDROPYRIMIDINE COMPOUND, PREPARATION METHOD THEREFOR AND APPLICATION THEREOF” (Shanghai Visonpharma Co., Ltd., priority 2021, published 2024).
Where two headings read alike, the source gives them in different places.

Tests used:
[1] = Cytotoxicity assay (CellTiter Glo); type: cell-based; settings: human; HepG2.2.15 cells, five days post treatment
Procedure: The Invention Determined Cytotoxicity of the Compounds Against HepG2.2.15 Cells (Table 2)
HepG2.2.15 cells were seeded into 96-well plates (8000 cells per well) and cell viability was measured by the addition of 60 μL of CellTiter Glo reagent (Promega) five days post treatment with the compounds. Cell plates with CellTiter Glo added were shaken on a plate shaker for 20 min and then the chemiluminescence signal was stabilized at room temperature for 10 min. Chemiluminescence values were read using a microplate reader (Bio-TeK SYNERGY NEO2).
The concentration corresponding to 50% cytotoxicity (CC50) was fitted by graphpad prism software. The cytotoxicity was calculated by the formula: % Cytotoxicity=100−(chemiluminescence value of sample Well −average chemiluminescence value of blank medium column)/(average chemiluminescence value of DMSO column −average chemiluminescence value of blank medium column)*100

[2] = tested on: HBV (hepatitis B virus) in HepG2.2.15 cells; test: Cell-based anti-viral activity assay (HBV DNA in supernatant by quantitative PCR); settings: 120 h, anti-HBV activity, HepG2.2.15 cells, 5 days, read-out: EC50 (HepG2.2.15)
Summary of the method: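 HepG2.2.15 cells (stably carrying HBV genome) treated with 3.16-fold compound dilutions, final 1% DMSO, for 5 days at 37 °C. Supernatant HBV DNA quantified by qPCR against a standard curve; % inhibition normalised to DMSO and high-concentration reference compound wells.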

[3] = Pharmacokinetics (PK) evaluation in mice; type: in vivo; settings: ICR mice, po 10 mg/kg; for Kp at 0.5 h / Kp at 1 h / Kp at 3 h / Kp at 5 h / concentration at 0.5 h / concentration at 1 h / concentration at 3 h / concentration at 5 h / AUC(0-t) / Cmax: mouse; for Kp at 0.5 h / Kp at 1 h / Kp at 3 h / Kp at 5 h: liver/plasma, read-out: Liver/Plasma ratio
Procedure: Pharmacokinetics (PK) Evaluation in Mice Test compounds were administered to ICR mice by gavage (po). The po dose was 10 mg/kg, and the vehicle formulation was 10% DMSO+40% PEG400+50% Saline (0.9% saline). Animals were fasted overnight (10-14 h) before administration and fed 4 h after administration. Blood was collected into heparin sodium anticoagulated tubes at multiple time points (0.5, 1, 3, 5 hours) after administration. Mice were euthanized with CO2 and livers were collected at multiple time points (0.5, 1, 3,5 h). The drug concentrations in plasma and liver were analyzed by LC-MS/MS method. Phenix WinNonlin was used to calculate the pharmacokinetic parameters.

[4] = liver, read-out: Liver drug conc.
[5] = plasma, read-out: Plasm drug conc.

SMILES: CCOC(=O)C1=C(CN2CCN3C(=O)N(C45CC(CC(=O)O)(C4)C5)C[C@@H]3C2)NC(c2nccs2)=N[C@H]1c1cccc(F)c1C [Compound 22, 2-(3-((S)-7-(((S)-5-(Ethoxycarbonyl)-6-(3-Fluoro-2-Methylphenyl)-2-(Thiazol-2-Yl)-3,6-Dihydropyrimidin-4-Yl)Methyl)-3-Oxohexahydroimidazo[1,5-a]Pyrazin-2(3H)-Yl)Bicyclo[1.1.1]Pentan-1-Yl)Acetic Acid]
- CC50 at 5 days [1]: > 50 µM
- EC50 [2]: 0.007 µM
- Liver AUC(0→t) [3]: 231116 ng·h/g
- Liver Cmax [3]: 102141 ng/g
- Kp at 0.5 h [3]: 120
- Kp at 1 h [3]: 115
- Kp at 3 h [3]: 137
- Kp at 5 h [3]: 297
- concentration at 0.5 h [3, 4]: 102000 ng/g
- concentration at 1 h [3, 4]: 94800 ng/g
- concentration at 3 h [3, 4]: 24700 ng/g
- concentration at 5 h [3, 4]: 12200 ng/g
- AUC(0-t) ([3]; plasma): 1860 ng·h/mL
- Cmax ([3]; plasma): 849 ng/mL
- concentration at 0.5 h [3, 5]: 849 ng/mL
- concentration at 1 h [3, 5]: 826 ng/mL
- concentration at 3 h [3, 5]: 180 ng/mL
- concentration at 5 h [3, 5]: 41 ng/mL

SMILES: CCOC(=O)C1=C(CN2CCN3C(=O)N(C45CC(COC)(C4)C5)C[C@@H]3[C@@H]2C(=O)O)NC(c2nccs2)=N[C@H]1c1cccc(F)c1C [Compound 48, (8R,8aR)-7-(((S)-5-(Ethoxycarbonyl)-6-(3-Fluoro-2-Methylphenyl)-2-(Thiazol-2-Yl)-3,6-Dihydropyrimidin-4-Yl)Methyl)-2-(3-(Methoxymethyl)Bicyclo[1.1.1]Pentan-1-Yl)-3-Oxooctahydroimidazo[1,5-a]Pyrazine-8-Carboxylic Acid]
- CC50 at 5 days [1]: > 50 µM
- EC50 [2]: 0.015 µM

SMILES: CCOC(=O)C1=C(CN2CCN3C(=O)N(C45CC(N(C)CC(=O)O)(C4)C5)C[C@@H]3C2)NC(c2nccs2)=N[C@H]1c1cccc(F)c1C [Compound 49, N-(3-((S)-7-(((S)-5-(Ethoxycarbonyl)-6-(3-Fluoro-2-Methylphenyl)-2-(Thiazol-2-Yl)-3,6-Dihydropyrimidin-4-Yl)Methyl)-3-Oxohexahydroimidazo[1,5-a]Pyrazin-2(3H)-Yl)Bicyclo[1.1.1]Pentan-1-Yl)-N-Methylglycine]
- CC50 at 5 days [1]: > 50 µM
- EC50 [2]: 0.017 µM

SMILES: CCOC(=O)C1=C(CN2CCN3C(=O)N(C45CCC(C(=O)O)(CC4)CC5)C[C@@H]3C2)NC(c2nccs2)=N[C@H]1c1cccc(F)c1C [Compound 52, 4-((S)-7-(((S)-5-(Ethoxycarbonyl)-6-(3-Fluoro-2-Methylphenyl)-2-(Thiazol-2-Yl)-3,6-Dihydropyrimidin-4-Yl)Methyl)-3-Oxohexahydroimidazo[1,5-a]Pyrazin-2(3H)-Yl)Bicyclo[2.2.2]Octane-1-Carboxylic Acid]
- CC50 at 5 days [1]: > 50 µM
- EC50 [2]: 0.003 µM

SMILES: CCOC(=O)C1=C(CN2CCN3C(=O)N(C45CCC(C(=O)O)(CC4)CC5)C[C@@H]3C2)NC(c2nccs2)=N[C@H]1c1ccc(F)cc1C [Compound 53, 4-((S)-7-(((S)-5-(Ethoxycarbonyl)-6-(4-Fluoro-2-Methylphenyl)-2-(Thiazol-2-Yl)-3,6-Dihydropyrimidin-4-Yl)Methyl)-3-Oxohexahydroimidazo[1,5-a]Pyrazin-2(3H)-Yl)Bicyclo[2.2.2]Octane-1-Carboxylic Acid]
- CC50 at 5 days [1]: > 50 µM
- EC50 [2]: 0.009 µM

SMILES: CCOC(=O)C1=C(CN2CCN3C(=O)N(C45CCC(C(=O)O)(CC4)CC5)C[C@@H]3C2)NC(c2nccs2)=N[C@H]1c1ccc(F)cc1Cl [Compound 55, 4-((S)-7-(((R)-6-(2-Chloro-4-Fluorophenyl)-5-(Ethoxycarbonyl)-2-(Thiazol-2-Yl)-3,6-Dihydropyrimidin-4-Yl)Methyl)-3-Oxohexahydroimidazo[1,5-a]Pyrazin-2(3H)-Yl)Bicyclo[2.2.2]Octane-1-Carboxylic Acid]
- CC50 at 5 days [1]: > 50 µM
- EC50 [2]: 0.002 µM

SMILES: CCOC(=O)C1=C(CN2CCN3C(=O)N(C45CCC(C(=O)O)(C4)C5)C[C@@H]3C2)NC(c2nccs2)=N[C@H]1c1cccc(F)c1C [Compound 56, 4-((S)-7-(((S)-5-(Ethoxycarbonyl)-6-(3-Fluoro-2-Methylphenyl)-2-(Thiazol-2-Yl)-3,6-Dihydropyrimidin-4-Yl)Methyl)-3-Oxohexahydroimidazo[1,5-a]Pyrazin-2(3H)-Yl)Bicyclo[2.1.1]Hexane-1-Carboxylic Acid]
- CC50 at 5 days [1]: > 50 µM
- EC50 [2]: 0.016 µM

SMILES: CCOC(=O)C1=C(CN2CCN3C(=O)N(C45CCC(C(=O)O)(C4)C5)C[C@@H]3C2)NC(c2nccs2)=N[C@H]1c1ccc(F)cc1Cl [Compound 57, 4-((S)-7-(((R)-6-(2-Chloro-4-Fluorophenyl)-5-(Ethoxycarbonyl)-2-(Thiazol-2-Yl)-3,6-Dihydropyrimidin-4-Yl)Methyl)-3-Oxohexahydroimidazo[1,5-a]Pyrazin-2(3H)-Yl)Bicyclo[2.1.1]Hexane-1-Carboxylic Acid]
- CC50 at 5 days [1]: > 50 µM
- EC50 [2]: 0.012 µM

SMILES: CCOC(=O)C1=C(CN2CCN3C(=O)N(C45CCC(CC(=O)O)(C4)C5)C[C@@H]3C2)NC(c2nccs2)=N[C@H]1c1cccc(F)c1C [Compound 58, 2-(4-((S)-7-(((S)-5-(Ethoxycarbonyl)-6-(3-Fluoro-2-Methylphenyl)-2-(Thiazol-2-Yl)-3,6-Dihydropyrimidin-4-Yl)Methyl)-3-Oxohexahydroimidazo[1,5-a]Pyrazin-2(3H)-Yl)Bicyclo[2.1.1]Hexan-1-Yl)Acetic Acid]
- CC50 at 5 days [1]: > 50 µM
- EC50 [2]: 0.006 µM
- Liver AUC(0→t) [3]: 175730 ng·h/g
- Liver Cmax [3]: 62519 ng/g
- Kp at 0.5 h [3]: 31
- Kp at 1 h [3]: 40
- Kp at 3 h [3]: 57
- Kp at 5 h [3]: 44
- concentration at 0.5 h [3, 4]: 62500 ng/g
- concentration at 1 h [3, 4]: 61300 ng/g
- concentration at 3 h [3, 4]: 26800 ng/g
- concentration at 5 h [3, 4]: 14200 ng/g
- AUC(0-t) ([3]; plasma): 4210 ng·h/mL
- Cmax ([3]; plasma): 2030 ng/mL
- concentration at 0.5 h [3, 5]: 2030 ng/mL
- concentration at 1 h [3, 5]: 1540 ng/mL
- concentration at 3 h [3, 5]: 470 ng/mL
- concentration at 5 h [3, 5]: 324 ng/mL

SMILES: CCOC(=O)C1=C(CN2CCN3C(=O)N(C45CCC(C(=O)O)(CC4)C5)C[C@@H]3C2)NC(c2nccs2)=N[C@H]1c1cccc(F)c1C [Compound 59, 4-((S)-7-(((S)-5-(Ethoxycarbonyl)-6-(3-Fluoro-2-Methylphenyl)-2-(Thiazol-2-Yl)-3,6-Dihydropyrimidin-4-Yl)Methyl)-3-Oxohexahydroimidazo[1,5-a]Pyrazin-2(3H)-Yl)Bicyclo[2.2.1]Heptane-1-Carboxylic Acid]
- CC50 at 5 days [1]: > 50 µM
- EC50 [2]: 0.012 µM

SMILES: CCOC(=O)C1=C(CN2CCN3C(=O)N(C45CCC(C(=O)O)(CC4)C5)C[C@@H]3C2)NC(c2nccs2)=N[C@H]1c1ccc(F)cc1Cl [Compound 60, 4-((S)-7-(((R)-6-(2-Chloro-4-Fluorophenyl)-5-(Ethoxycarbonyl)-2-(Thiazol-2-Yl)-3,6-Dihydropyrimidin-4-Yl)Methyl)-3-Oxohexahydroimidazo[1,5-a]Pyrazin-2(3H)-Yl)Bicyclo[2.2.1]Heptane-1-Carboxylic Acid]
- CC50 at 5 days [1]: > 50 µM
- EC50 [2]: 0.009 µM

SMILES: CCOC(=O)C1=C(CN2CCN3C(=O)N(C45C6C7C4C4C5C6C74C(=O)O)C[C@@H]3C2)NC(c2nccs2)=N[C@H]1c1cccc(F)c1C (some centres unmarked) [Compound 61]
- CC50 at 5 days [1]: > 50 µM
- EC50 [2]: 0.017 µM
